Test results reported in ChEMBL document CHEMBL1145393, “Synthesis and antitumour activity of new tiazofurin analogues bearing a 2,3-anhydro functionality in the furanose ring” (Bioorg Med Chem Lett, 2007).

Assays:
[1] = test system: HL-60; experiment: Cytotoxicity against human HL60 cell line after 48 hrs by MTT assay; format: cell-based; details: HL-60, 48 h
[2] = test system: Jurkat; experiment: Cytotoxicity against human Jurkat T cells after 48 hrs by MTT assay; format: cell-based
[3] = test system: Raji; experiment: Cytotoxicity against human Raji cells after 48 hrs by MTT assay; format: cell-based
[4] = test system: HT-29; experiment: Cytotoxicity against human HT29 cell line after 48 hrs by MTT assay; format: cell-based; details: HT-29, 48 h
[5] = test system: MCF7; experiment: Cytotoxicity against human MCF7 cell line after 48 hrs by MTT assay; format: cell-based; details: MCF7, 48 h
[6] = test system: MRC5; experiment: Cytotoxicity against human MRC5 cell line after 48 hrs by MTT assay; format: functional, cell-based; details: MRC5, 48 h
[7] = test system: K562; experiment: Cytotoxicity against human K562 cells after 48 hrs by MTT assay; format: cell-based; details: K562, 48 h

For `NC(=O)c1csc([C@@H]2O[C@H](CO)[C@@H](O)[C@H]2O)n1` [TIAZOFURIN], the IC50 [1] was 1.84 µM, the IC50 [2] was 0.51 µM and the IC50 [3] was 16.1 µM. It also gave an IC50 [4] of 0.89 µM, an IC50 [5] of 6.39 µM and an IC50 [6] of 0.49 µM.

`NC(=O)c1csc([C@@H]2O[C@H](CO)[C@H]3O[C@H]32)n1` was tested, and the IC50 [7] was 0.19 µM, the IC50 [1] was 2.08 µM and the IC50 [2] was 4.84 µM. The IC50 [3] was 0.54 µM, the IC50 [4] was > 100 µM and the IC50 [5] was 0.96 µM. The IC50 [6] was > 100 µM.

For `NC(=O)c1csc(C[C@@H]2O[C@H](CO)[C@H]3O[C@H]32)n1`, the IC50 [7] was 0.49 µM, the IC50 [1] was 3.5 µM and the IC50 [2] was 2.18 µM. For the same molecule, the IC50 [3] was 0.07 µM, the IC50 [4] was 0.09 µM and the IC50 [5] was 9.09 µM. For the same molecule, the IC50 [6] was > 100 µM.

In the case of `NC(=O)c1csc(C[C@H]2O[C@H](CO)[C@H]3O[C@H]32)n1`, the IC50 [7] is reported as 0.09 µM, the IC50 [1] is reported as > 100 µM and the IC50 [2] is reported as 11 µM. For the same molecule, the IC50 [3] was > 100 µM, the IC50 [4] was 0.53 µM and the IC50 [5] was 10 µM. The IC50 [6] was > 100 µM.
